# In patent US6596734B1, “Tetrahydroisoquinoline compounds for use as β3-adrenoreceptor agonists” (Molecular Design International, Inc., priority 2001, dated 2003):
# Structures can show the parent of a compound that is named as a salt.
# What was measured:
# human β1-adrenoreceptor = molecular target: T1, human β1-adrenoreceptor (Homo sapiens, UniProt P08588); experiment: cAMP radioimmunoassay in CHO cells expressing human β1-adrenoreceptor; assay type: cell-based; conditions: maximal response relative to standard reference agonist (isoproterenol = 100%), na = not active, read-out: h-β1 cAMP Max %
# T1 construct: expressed in transfected cells; host or cells: CHO cells
# T1 sequence (P08588 whole entry): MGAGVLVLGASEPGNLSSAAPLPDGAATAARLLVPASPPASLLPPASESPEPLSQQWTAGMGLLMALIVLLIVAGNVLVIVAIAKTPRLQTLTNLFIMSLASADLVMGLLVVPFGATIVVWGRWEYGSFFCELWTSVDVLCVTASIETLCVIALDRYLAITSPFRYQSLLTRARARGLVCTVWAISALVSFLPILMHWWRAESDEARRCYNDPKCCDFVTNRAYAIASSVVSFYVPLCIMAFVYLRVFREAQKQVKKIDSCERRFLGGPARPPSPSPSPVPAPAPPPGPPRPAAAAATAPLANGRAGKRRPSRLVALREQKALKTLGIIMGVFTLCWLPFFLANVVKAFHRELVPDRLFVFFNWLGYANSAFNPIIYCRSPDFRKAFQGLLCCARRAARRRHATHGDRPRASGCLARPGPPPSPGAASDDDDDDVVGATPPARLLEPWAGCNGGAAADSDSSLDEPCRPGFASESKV
# Description: (§1) Chinese Hamster Ovary (CHO) cells expressing either human β1-, β2-, or β3-adrenoreceptor subtypes were used. Varying concentrations of each compound were added to the incubated cells and the cyclic AMP (cAMP) generated within the cells was extracted, and determined using a radioimmunoassay. Effective concentration-50 (EC-50) values were measured as the concentration (in nanomolar) of each drug that gave 50% of its maximum cAMP response. The maximal response (Max %) of each tested drug is expressed as a ratio of the drug response to that of a standard reference agonist (e.g., isoproterenol (Max %=100%)). If a compound has no activity for increasing cAMP at the highest concentration used, it is designated as “not active” or “na” in Table I below, which summarizes the testing results. See Konkar et al., Journal of Pharmacology and Experimental Therapeutics 291:875-883 (1999).
# human β2-adrenoreceptor = molecular target: T2, human β2-adrenoreceptor (Homo sapiens, UniProt P07550); experiment: cAMP radioimmunoassay in CHO cells expressing human β2-adrenoreceptor; assay type: cell-based; conditions: maximal response relative to standard reference agonist (isoproterenol = 100%), na = not active, read-out: h-β2 cAMP Max %
# T2 construct: expressed in transfected cells; host or cells: CHO cells
# T2 sequence (P07550 whole entry): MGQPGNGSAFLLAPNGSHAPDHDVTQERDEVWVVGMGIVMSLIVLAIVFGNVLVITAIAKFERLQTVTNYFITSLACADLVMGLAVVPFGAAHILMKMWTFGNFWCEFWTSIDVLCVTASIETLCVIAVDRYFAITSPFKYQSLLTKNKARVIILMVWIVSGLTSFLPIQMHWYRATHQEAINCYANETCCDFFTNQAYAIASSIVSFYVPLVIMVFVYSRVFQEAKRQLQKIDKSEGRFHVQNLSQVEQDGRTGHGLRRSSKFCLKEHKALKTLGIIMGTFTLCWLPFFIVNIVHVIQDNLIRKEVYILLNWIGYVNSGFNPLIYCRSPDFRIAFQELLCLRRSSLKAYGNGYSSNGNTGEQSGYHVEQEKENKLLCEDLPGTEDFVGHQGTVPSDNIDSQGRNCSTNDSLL
# Description: as §1
# human β3-adrenoreceptor = molecular target: T3, human β3-adrenoreceptor (Homo sapiens, UniProt P13945); experiment: cAMP radioimmunoassay in CHO cells expressing human β3-adrenoreceptor; assay type: cell-based; conditions: for EC50: concentration giving 50% of the drug's maximum cAMP response, na = not active at highest concentration used, read-out: h-β3 cAMP EC50; for Emax: maximal response relative to standard reference agonist (isoproterenol = 100%), na = not active, read-out: h-β3 cAMP Max %
# T3 construct: expressed in transfected cells; host or cells: CHO cells
# T3 sequence (P13945 whole entry): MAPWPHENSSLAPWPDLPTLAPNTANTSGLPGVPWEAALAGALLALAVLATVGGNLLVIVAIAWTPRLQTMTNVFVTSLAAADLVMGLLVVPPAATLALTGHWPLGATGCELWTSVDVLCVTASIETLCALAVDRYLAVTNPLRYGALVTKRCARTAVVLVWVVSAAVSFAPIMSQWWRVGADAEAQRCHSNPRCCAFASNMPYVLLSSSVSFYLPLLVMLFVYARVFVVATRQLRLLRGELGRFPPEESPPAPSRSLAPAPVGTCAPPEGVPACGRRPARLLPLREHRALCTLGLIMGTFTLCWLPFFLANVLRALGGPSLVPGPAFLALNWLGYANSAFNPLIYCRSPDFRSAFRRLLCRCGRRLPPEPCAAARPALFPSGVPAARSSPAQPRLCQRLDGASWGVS
# Description: as §1
Emax (human β1-adrenoreceptor) [%],Emax (human β2-adrenoreceptor) [%],EC50 (human β3-adrenoreceptor) [nM],Emax (human β3-adrenoreceptor) [%],melting point,SMILES
5,5,3,98,,COc1c(I)cc(CC2NCCc3cc(O)c(NS(C)(=O)=O)cc32)cc1I (centres unmarked)
16.2,24.1,,39.3,,COc1c(Br)cc(CC2c3cc(NS(C)(=O)=O)c(O)cc3CCN2C)cc1Br (centres unmarked)
,,,24,,COc1ccc(CC2NCCc3cc(O)c(NS(C)(=O)=O)cc32)cc1 (centres unmarked)
10.2,15.4,118,76.9,,COc1ccc(CC2NCCc3cc(O)c(NS(C)(=O)=O)cc32)cc1OC (centres unmarked)
,,9.91,92,,CS(=O)(=O)Nc1cc2c(cc1O)CCNC2Cc1ccc(Cl)c(Cl)c1 (centres unmarked)
12.6,10.8,,2.24,,CS(=O)(=O)Nc1cc2c(cc1N)CCNC2Cc1ccc(Cl)c(Cl)c1 (centres unmarked)
,,24.4,78.3,,CS(=O)(=O)Nc1cc2c(cc1O)CCNC2Cc1ccc(F)c(F)c1 (centres unmarked)
,,38.8,66.6,,CS(=O)(=O)Nc1cc2c(cc1O)CCNC2Cc1cc(F)cc(F)c1 (centres unmarked)
8.4,,1.51,102,,CCS(=O)(=O)Nc1cc2c(cc1O)CCNC2Cc1cc(Br)c(OC)c(Br)c1 (centres unmarked)
13.1,21.4,35.3,88.2,,COc1c(Br)cc(CC2NCCc3cc(O)c(NS(=O)(=O)c4ccccc4)cc32)cc1Br (centres unmarked)
8.6,13.5,5.22,90.4,,COc1c(Br)cc(CC2NCCc3cc(O)c(NS(=O)(=O)c4ccc(F)cc4)cc32)cc1Br (centres unmarked)
12.1,5.8,,8.7,,COc1c(Br)cc(CC2NCCc3cc(O)c(N(S(=O)(=O)c4ccc(F)cc4)S(=O)(=O)c4ccc(F)cc4)cc32)cc1Br (centres unmarked)
18.1,8,8.46,97.6,,COc1c(Br)cc(CC2NCCc3cc(O)c(NS(=O)(=O)c4ccc(C)cc4)cc32)cc1Br (centres unmarked)
,,8.09,88.3,,COc1ccc(S(=O)(=O)Nc2cc3c(cc2O)CCNC3Cc2cc(Br)c(OC)c(Br)c2)cc1 (centres unmarked)
,,80.3,65.7,,COc1c(Br)cc(CC2NCCc3cc(O)c(NS(=O)(=O)c4ccc(OC(F)(F)F)cc4)cc32)cc1Br (centres unmarked)
13,16.6,29.2,83.3,,COc1c(Br)cc(CC2NCCc3cc(O)c(NS(=O)(=O)c4ccc(C(F)(F)F)cc4)cc32)cc1Br (centres unmarked)
,,20.9,92.2,,COc1c(Br)cc(CC2NCCc3cc(O)c(NS(=O)(=O)Cc4ccccc4)cc32)cc1Br (centres unmarked)
,,23.1,96.6,,COc1c(Br)cc(CC2NCCc3cc(O)c(NS(=O)(=O)/C=C/c4ccccc4)cc32)cc1Br (centres unmarked)
5,8,2.9,91,,COc1c(I)cc(CC2NCCc3cc(O)c(NS(=O)(=O)c4ccc(C)cc4)cc32)cc1I (centres unmarked)
11,17.2,,8.7,,CCOC(=O)Nc1cc2c(cc1NS(C)(=O)=O)CCNC2Cc1cc(Br)c(OC)c(Br)c1 (centres unmarked)
,,,,226 to 228 °C (dec.),"COc1ccc(S(=O)(=O)Nc2cc3c(cc2O)CCNC3Cc2cc(Br)c(OC)c(Br)c2)cc1 (centres unmarked) (as salt: hydrochloride) [Example 4, N-[1-(3,5-dibromo-4-methoxy-benzyl)-6-hydroxy-1,2,3,4-tetrahydro-isoquinolin-7-yl]-4-methoxy-benzenesulfonamide hydrochloride]"
